Results from paper PMC4441267.

Assay: RuAAC macrocyclisation of azide/terminal alkyne linear peptidomimetics to 1,5-triazole ([Cp*RuCl]4 0.1 eq, Ar-degassed), then Boc removal (TMSCl/MeOH GP4 or HCl/dioxane GP5)
Conditions: toluene (reflux), 1.25 mM, 111.0 °C, 18.0 h, 2 steps

Molecule COC(=O)[C@@H]1CCCCn2nncc2CCC(=O)NCCC[C@H](N)C(=O)N1 [Boc-Orn(4-pentynoyl)-Lys(N3)-OMe] has a ring closure, yield over several steps (from C#CCCC(=O)NCCC[C@H](NC(=O)OC(C)(C)C)C(=O)N[C@@H](CCCCN=[N+]=[N-])C(=O)OC, 17-membered ring) of 82%.
Molecule COC(=O)[C@@H]1CNC(=O)[C@H](Cc2ccccc2)n2nncc2CCC(=O)NCCC[C@H](N)C(=O)N1 [Boc-Orn(4-pentynoyl)-Dap(N3-Phe)-OMe] has a ring closure, yield over several steps (from C#CCCC(=O)NCCC[C@H](NC(=O)OC(C)(C)C)C(=O)N[C@@H](CNC(=O)[C@H](Cc1ccccc1)N=[N+]=[N-])C(=O)OC, 17-membered ring) of 93%.
COC(=O)[C@@H]1CNC(=O)[C@H](Cc2ccccc2)n2nncc2CCCC(=O)NCCC[C@H](N)C(=O)N1 [Boc-Orn(5-hexynoyl)-Dap(N3-Phe)-OMe] showed a ring closure, yield over several steps (from C#CCCCC(=O)NCCC[C@H](NC(=O)OC(C)(C)C)C(=O)N[C@@H](CNC(=O)[C@H](Cc1ccccc1)N=[N+]=[N-])C(=O)OC, 18-membered ring) of 46%.
Work on COC(=O)[C@@H]1CCCn2nncc2CCCC(=O)Nc2ccc(cc2)C[C@H](N)C(=O)N1 [Boc-Phe(4-NH-5-hexynoyl)-Orn(N3)-OMe] yielded a ring closure, yield over several steps (from C#CCCCC(=O)Nc1ccc(C[C@H](NC(=O)OC(C)(C)C)C(=O)N[C@@H](CCCN=[N+]=[N-])C(=O)OC)cc1, 19-membered ring) of 68%.
COC(=O)[C@@H]1Cc2ccc(cc2)-n2nncc2CNC(=O)NCCC[C@H](N)C(=O)N1 [Boc-Orn(CONH-propargyl)-Phe(4-N3)-OMe] gave a ring closure, yield over several steps (from C#CCNC(=O)NCCC[C@H](NC(=O)OC(C)(C)C)C(=O)N[C@@H](Cc1ccc(N=[N+]=[N-])cc1)C(=O)OC, 18-membered ring) of 46%.
In the case of COC(=O)[C@@H]1Cc2ccc(cc2)-n2nncc2CNC(=O)NCC[C@H](N)C(=O)N1 [Boc-Dab(CONH-propargyl)-Phe(4-N3)-OMe], the ring closure, yield over several steps (from C#CCNC(=O)NCC[C@H](NC(=O)OC(C)(C)C)C(=O)N[C@@H](Cc1ccc(N=[N+]=[N-])cc1)C(=O)OC, 17-membered ring) is reported as 40%.
For COC(=O)[C@@H]1CCCn2nncc2CCCC(=O)NCC[C@H](N)C(=O)N1 [Boc-Dab(5-hexynoyl)-Orn(N3)-OMe], the ring closure, yield over several steps (from C#CCCCC(=O)NCC[C@H](NC(=O)OC(C)(C)C)C(=O)N[C@@H](CCCN=[N+]=[N-])C(=O)OC, 16-membered ring) was 99%.
For COC(=O)[C@@H]1CCCn2nncc2CCC(=O)NCCC[C@H](N)C(=O)N1 [Boc-Orn(4-pentynoyl)-Orn(N3)-OMe], the ring closure, yield over several steps (from C#CCCC(=O)NCCC[C@H](NC(=O)OC(C)(C)C)C(=O)N[C@@H](CCCN=[N+]=[N-])C(=O)OC, 16-membered ring) was 99%.
COC(=O)[C@@H]1CCCCNC(=O)[C@H](Cc2ccccc2)n2nncc2CNC(=O)NCC[C@H](N)C(=O)N1 [Boc-Dab(CONH-propargyl)-Lys(N3-Phe)-OMe] showed a ring closure, yield over several steps (from C#CCNC(=O)NCC[C@H](NC(=O)OC(C)(C)C)C(=O)N[C@@H](CCCCNC(=O)[C@H](Cc1ccccc1)N=[N+]=[N-])C(=O)OC, 19-membered ring) of 78%.
For COC(=O)[C@@H]1CCCCn2nncc2CNC(=O)NC[C@H](N)C(=O)N1 [Boc-Dap(CONH-propargyl)-Lys(N3)-OMe], the ring closure, yield over several steps (from C#CCNC(=O)NC[C@H](NC(=O)OC(C)(C)C)C(=O)N[C@@H](CCCCN=[N+]=[N-])C(=O)OC, 15-membered ring) was 73%.
Molecule COC(=O)[C@@H]1CNC(=O)[C@H](Cc2ccccc2)n2nncc2CCCC(=O)NC[C@H](N)C(=O)N1 [Boc-Dap(5-hexynoyl)-Dap(N3-Phe)-OMe] has a ring closure, yield over several steps (from C#CCCCC(=O)NC[C@H](NC(=O)OC(C)(C)C)C(=O)N[C@@H](CNC(=O)[C@H](Cc1ccccc1)N=[N+]=[N-])C(=O)OC, 16-membered ring) of 99%.
Molecule COC(=O)[C@@H]1CNC(=O)[C@H](Cc2ccccc2)n2nncc2CCC(=O)NC[C@H](N)C(=O)N1 [Boc-Dap(4-pentynoyl)-Dap(N3-Phe)-OMe] has a ring closure, yield over several steps (from C#CCCC(=O)NC[C@H](NC(=O)OC(C)(C)C)C(=O)N[C@@H](CNC(=O)[C@H](Cc1ccccc1)N=[N+]=[N-])C(=O)OC, 15-membered ring) of 89%.
Molecule COC(=O)[C@@H]1CCCCNC(=O)[C@H](Cc2ccccc2)n2nncc2CNC(=O)NCCCC[C@H](N)C(=O)N1 [Boc-Lys(CONH-propargyl)-Lys(N3-Phe)-OMe] has a ring closure, yield over several steps (from C#CCNC(=O)NCCCC[C@H](NC(=O)OC(C)(C)C)C(=O)N[C@@H](CCCCNC(=O)[C@H](Cc1ccccc1)N=[N+]=[N-])C(=O)OC, 21-membered ring) of 81%.
COC(=O)[C@@H]1CCCCn2nncc2CCC(=O)Nc2ccc(cc2)C[C@H](N)C(=O)N1 [Boc-Phe(4-NH-4-pentynoyl)-Lys(N3)-OMe] gave a ring closure, yield over several steps (from C#CCCC(=O)Nc1ccc(C[C@H](NC(=O)OC(C)(C)C)C(=O)N[C@@H](CCCCN=[N+]=[N-])C(=O)OC)cc1, 19-membered ring) of 71%.
Work on COC(=O)[C@@H]1CNC(=O)[C@H](Cc2ccccc2)n2nncc2CNC(=O)NCCCC[C@H](N)C(=O)N1 [Boc-Lys(CONH-propargyl)-Dap(N3-Phe)-OMe] yielded a ring closure, yield over several steps (from C#CCNC(=O)NCCCC[C@H](NC(=O)OC(C)(C)C)C(=O)N[C@@H](CNC(=O)[C@H](Cc1ccccc1)N=[N+]=[N-])C(=O)OC, 18-membered ring) of 96%.
For COC(=O)[C@@H]1CCCCNC(=O)[C@H](Cc2ccccc2)n2nncc2CNC(=O)NC[C@H](N)C(=O)N1 [Boc-Dap(CONH-propargyl)-Lys(N3-Phe)-OMe], the ring closure, yield over several steps (from C#CCNC(=O)NC[C@H](NC(=O)OC(C)(C)C)C(=O)N[C@@H](CCCCNC(=O)[C@H](Cc1ccccc1)N=[N+]=[N-])C(=O)OC, 18-membered ring) was 38%.
With COC(=O)[C@@H]1CCCCNC(=O)[C@H](Cc2ccccc2)n2nncc2CCC(=O)NCCC[C@H](N)C(=O)N1 [Boc-Orn(4-pentynoyl)-Lys(N3-Phe)-OMe] the ring closure, yield over several steps (from C#CCCC(=O)NCCC[C@H](NC(=O)OC(C)(C)C)C(=O)N[C@@H](CCCCNC(=O)[C@H](Cc1ccccc1)N=[N+]=[N-])C(=O)OC, 20-membered ring) was 97%.
Molecule COC(=O)[C@@H]1CCCCn2nncc2CNC(=O)NCC[C@H](N)C(=O)N1 [Boc-Dab(CONH-propargyl)-Lys(N3)-OMe] has a ring closure, yield over several steps (from C#CCNC(=O)NCC[C@H](NC(=O)OC(C)(C)C)C(=O)N[C@@H](CCCCN=[N+]=[N-])C(=O)OC, 16-membered ring) of 99%.
With COC(=O)[C@@H]1CCCn2nncc2CNC(=O)NCCCC[C@H](N)C(=O)N1 [Boc-Lys(CONH-propargyl)-Orn(N3)-OMe] the ring closure, yield over several steps (from C#CCNC(=O)NCCCC[C@H](NC(=O)OC(C)(C)C)C(=O)N[C@@H](CCCN=[N+]=[N-])C(=O)OC, 17-membered ring) was 99%.
Molecule COC(=O)[C@@H]1CCCn2nncc2CCC(=O)Nc2ccc(cc2)C[C@H](N)C(=O)N1 [Boc-Phe(4-NH-4-pentynoyl)-Orn(N3)-OMe] has a ring closure, yield over several steps (from C#CCCC(=O)Nc1ccc(C[C@H](NC(=O)OC(C)(C)C)C(=O)N[C@@H](CCCN=[N+]=[N-])C(=O)OC)cc1, 18-membered ring) of 44%.
COC(=O)[C@@H]1CCCn2nncc2CNC(=O)NC[C@H](N)C(=O)N1 [Boc-Dap(CONH-propargyl)-Orn(N3)-OMe] showed a ring closure, yield over several steps (from C#CCNC(=O)NC[C@H](NC(=O)OC(C)(C)C)C(=O)N[C@@H](CCCN=[N+]=[N-])C(=O)OC, 14-membered ring) of 80%.
COC(=O)[C@@H]1CCCCNC(=O)[C@H](Cc2ccccc2)n2nncc2CNC(=O)NCCC[C@H](N)C(=O)N1 [Boc-Orn(CONH-propargyl)-Lys(N3-Phe)-OMe] gave a ring closure, yield over several steps (from C#CCNC(=O)NCCC[C@H](NC(=O)OC(C)(C)C)C(=O)N[C@@H](CCCCNC(=O)[C@H](Cc1ccccc1)N=[N+]=[N-])C(=O)OC, 20-membered ring) of 56%.
Molecule COC(=O)[C@@H]1CCCCNC(=O)[C@H](Cc2ccccc2)n2nncc2CCCC(=O)NCCCC[C@H](N)C(=O)N1 [Boc-Lys(5-hexynoyl)-Lys(N3-Phe)-OMe] has a ring closure, yield over several steps (from C#CCCCC(=O)NCCCC[C@H](NC(=O)OC(C)(C)C)C(=O)N[C@@H](CCCCNC(=O)[C@H](Cc1ccccc1)N=[N+]=[N-])C(=O)OC, 22-membered ring) of 60%.
COC(=O)[C@@H]1Cc2ccc(cc2)-n2nncc2CCC(=O)NCCCC[C@H](N)C(=O)N1 [Boc-Lys(4-pentynoyl)-Phe(4-N3)-OMe] gave a ring closure, yield over several steps (from C#CCCC(=O)NCCCC[C@H](NC(=O)OC(C)(C)C)C(=O)N[C@@H](Cc1ccc(N=[N+]=[N-])cc1)C(=O)OC, 19-membered ring) of 68%.
COC(=O)[C@@H]1CCCCn2nncc2CCC(=O)NCCCC[C@H](N)C(=O)N1 [Boc-Lys(4-pentynoyl)-Lys(N3)-OMe] showed a ring closure, yield over several steps (from C#CCCC(=O)NCCCC[C@H](NC(=O)OC(C)(C)C)C(=O)N[C@@H](CCCCN=[N+]=[N-])C(=O)OC, 18-membered ring) of 37%.
COC(=O)[C@@H]1CCCCn2nncc2CCC(=O)NCC[C@H](N)C(=O)N1 [Boc-Dab(4-pentynoyl)-Lys(N3)-OMe] gave a ring closure, yield over several steps (from C#CCCC(=O)NCC[C@H](NC(=O)OC(C)(C)C)C(=O)N[C@@H](CCCCN=[N+]=[N-])C(=O)OC, 16-membered ring) of 99%.
